# Measured values reported in the supplement of paper PMC8967900.
# How the values were obtained:
# Assay in all cases: selective drug sensitivity score (sDSS, relative to normal bone marrow) (sDSS (score)); higher = more potent and effective on the cell line relative to normal bone marrow cells
# Details in all cases: 72 h
# MN-60 = test system: MN-60
# DND-41 = test system: DND-41
# HAL-01 = test system: HAL-01
# ALL-SIL = test system: ALL-SIL
# RCH-ACV = test system: RCH-ACV
# COG-LL-319h = test system: COG-LL-319h
# P30-OHKUBO = test system: P30-OHKUBO
# KASUMI-10 = test system: KASUMI-10
# COG-LL-394h = test system: COG-LL-394h
# TANOUE = test system: TANOUE
# SEM cells = test system: SEM cells
# LC4-1 = test system: LC4-1
# JURKAT = test system: JURKAT
# MHH-CALL-3 = test system: MHH-CALL-3
# KASUMI-9 = test system: KASUMI-9
# MOLT-14 = test system: MOLT-14
# NALL-1 = test system: NALL-1
# P12-ICHIKAWA = test system: P12-ICHIKAWA
# 380 = test system: 380
# HPB-ALL = test system: HPB-ALL
# 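Also: ALL cell lines in 384-well plates, five doses spanning 10,000-fold, each plate scaled between vehicle and 100 µmol/L benzalkonium chloride controls, sDSS an adapted area-under-curve metric.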
Structure (SMILES),selective drug sensitivity score (MN-60),selective drug sensitivity score (DND-41),selective drug sensitivity score (HAL-01),selective drug sensitivity score (ALL-SIL),selective drug sensitivity score (RCH-ACV),selective drug sensitivity score (COG-LL-319h),selective drug sensitivity score (P30-OHKUBO),selective drug sensitivity score (KASUMI-10),selective drug sensitivity score (COG-LL-394h),selective drug sensitivity score (TANOUE),selective drug sensitivity score (SEM cells),selective drug sensitivity score (LC4-1),selective drug sensitivity score (JURKAT),selective drug sensitivity score (MHH-CALL-3),selective drug sensitivity score (KASUMI-9),selective drug sensitivity score (MOLT-14),selective drug sensitivity score (NALL-1),selective drug sensitivity score (P12-ICHIKAWA),selective drug sensitivity score 380,selective drug sensitivity score (HPB-ALL)
CC[C@]1(O)C[C@H]2CN(CCc3c([nH]c4ccccc34)[C@@](C(=O)OC)(c3cc4c(cc3OC)N(C)[C@H]3[C@@](O)(C(=O)OC)[C@H](OC(C)=O)[C@]5(CC)C=CCN6CC[C@]43[C@@H]65)C2)C1 [Vinblastine] (top concentration 1000 nM),-2.4,-0.7,-5.1,5.2,14.4,19.7,9.8,-1,-0.1,-9,10.8,13.6,0.5,-0.1,14.9,-2.5,-3.8,-3.5,7,19.7
CC[C@]1(O)C[C@H]2CN(CCc3c([nH]c4ccccc34)[C@@](C(=O)OC)(c3cc4c(cc3OC)N(C=O)[C@H]3[C@@](O)(C(=O)OC)[C@H](OC(C)=O)[C@]5(CC)C=CCN6CC[C@]43[C@@H]65)C2)C1 [Vincristine] (top concentration 1000 nM),-1.58,2.02,-6.38,13.1,17.2,16.3,17.4,4.72,3.92,-11.1,12.7,16.7,4.52,4.22,15.9,7.72,-0.88,4.52,14.9,14.1
FC(F)c1nc2ccccc2n1-c1nc(N2CCOCC2)nc(N2CCOCC2)n1 [ZSTK474] (top concentration 10000 nM),0.36,-3.14,18.5,2.46,28.4,4.86,13.3,0.96,0.86,-7.04,5.66,-0.44,1.76,10.3,9.86,-4.14,1.96,3.66,13.7,-1.04
